# Test results published in patent US20220324770A1, “NITRIFICATION INHIBITORS” (The University of Melbourne, priority 2019, published 2022).
# Key:
# [1] = test system: Dahlen soil; assay: Soil microcosm incubation (nitrification of applied ammonium), Dahlen soil; settings: for Nitrified NH4+—N (%) Day 3 / Nitrified NH4+—N (%) Day 7 / Nitrified NH4+—N (%) Day 14 / Nitrified NH4+—N (%) Day 21 / Nitrified NH4+—N (%) Day 28: 10 mol %
# Procedure: (§1) The soil used in this study was collected from four different locations in Victoria, Australia: (i) a wheat cropping soil from Horsham (36° 45′S, 142° 07′ E), (ii) a rotational cropping soil from Dahlen (36° 37′S, 142° 09′ E), (iii) a vegetable growing soil from Clyde (38° 08′S, 145° 20′ E), and (iv) a pasture soil from Terang (38° 15′S, 142° 52′E). In addition, a sugarcane cropping soil from South Johnstone in northern Queensland (17° 34′S, 145° 57′ E) was also studied. The water content of the soil was calculated before commencing each experiment, from samples that were oven-dried to constant weight. The soil's water-filled pore space (WFPS) was in the range 52%-61%, which is within the recommended 50-70% range for microbial activity due to oxygen and nutrient availability (Fichtner, T., et al., Applied Sciences, 2019, 9, 496).
# (§2) Soil microcosm incubations were carried out in 250 ml polypropylene specimen containers (Sarstedt, Germany), containing 18.24 g oven dry-weight equivalent of soil. Microcosms were re-wetted and pre-incubated at the test temperature for seven days to revive soil microbial activity. Following pre-incubation, the remaining volume to reach the desired water-filled pore spaces (WFPS %) was applied as one of the following treatment solutions; (NH4)2SO4(Control), (NH4)2SO4+DMPP, or (NH4)2SO4+one of Compounds 1-23. Each treatment was applied in triplicate per soil type, so that n=3 at each time point.
# (§3) Treatment solutions were prepared such that each microcosm received (NH4)2SO4 at a rate of 100 mg N per kg soil, Compounds 1-23 at 10 mol % of applied N, or DMPP at one of 1.5, 3.6 or 10 mol % of applied N, referred to as L-DMPP, M-DMPP or H-DMPP respectively.
# (§4) The microcosms were incubated for 0, 3, 7, 14, 21 or 28 days, where day 0 samples were extracted following 1-hour incubation post-treatment. Soil microcosms were aerated and moisture levels were replenished based on weight loss every few days throughout the incubation period.
# (§5) At the end of each incubation period, soil microcosms were destructively sampled by treatment with 2M KCl (100 mL). After shaking for 1 hour, soil-KCl solutions were filtered (Whatman 42) before storing the filtrates at −20° C. until the conclusion of the experiment. All KCl extracts were then analysed by Segmented Flow Analysis (San++, Skalar, Breda, The Netherlands) for the concentration of nitrogen from ammonium (NH4^+—N) and nitrogen from NO3 and NO2 (NOx^−—N) after appropriate dilutions. Results are reported as the mean of three replicates, errors reported are standard errors of the mean.
# (§6) Nitrification calculations were performed as previously reported (Aulakh, M., et al., Biology and Fertility of Soils 2001, 33, 258-263; Mahmood, T., et al., Soil Research 2017, 55, 715-722) without correction for the initial baseline concentrations of NH4^+—N or NO3^− N in the untreated soil. For each treatment nitrified NH4^+—N (%) was calculated according to eqn. 1:
# (§7) where [NH4^+—N]0 is the NH4^+—N concentration (in mg N kg^−1 soil) of the soil on day 0 and [NH4^+—N]t is the NH4^+—N concentration (in mg N kg^−1 soil) of the soil at a given time point t.
# (§8) NOx^−—N accumulation rates (mg NOx^−—N/kg soil/day) over the 28-day incubation experiments were calculated for each treatment as in the following (eqn. 2):
# (§9) [NOx^−—N]t=0 and [NOx^−—N]t=28 are the combined concentrations of nitrite (NO2) and nitrate (NO3) in the soil (in mg N kg^−1 soil) on day 0 and day 28, respectively.
# [2] = test system: South Johnstone soil; assay: Soil microcosm incubation (nitrification of applied ammonium), South Johnstone soil; settings: for Nitrified NH4+—N (%) Day 3 / Nitrified NH4+—N (%) Day 7 / Nitrified NH4+—N (%) Day 14 / Nitrified NH4+—N (%) Day 21 / Nitrified NH4+—N (%) Day 28: 10 mol %; for effectiveness compared to treatment with DMPP (higher NH4+—N, lower NOx−—N) / retaining NH4+—N vs DMPP / retaining NH4+—N and slowing NOx−—N growth vs fertilised control: South Johnstone soil; for effectiveness compared to treatment with DMPP (higher NH4+—N, lower NOx−—N): 25° C.; for Nitrified NH4+—N (%) Day 28 / effectiveness compared to treatment with DMPP (higher NH4+—N, lower NOx−—N) / retaining NH4+—N and slowing NOx−—N growth vs fertilised control: day 28; for retaining NH4+—N vs DMPP / retaining NH4+—N and slowing NOx−—N growth vs fertilised control: 35° C.
# Procedure: as §1, §2, §3, §4, §5, §6, §7
# [3] = test system: Terang soil; assay: Soil microcosm incubation (nitrification of applied ammonium), Terang soil; settings: for Nitrified NH4+—N (%) Day 3 / Nitrified NH4+—N (%) Day 7 / Nitrified NH4+—N (%) Day 14 / Nitrified NH4+—N (%) Day 28: Terang soil pH 6.5, 25° C., L-DMPP 1.5 mol %; for Nitrified NH4+—N (%) Day 3: compounds 10 mol % of applied N, (NH4)2SO4 100 mg N per kg soil; for Nitrified NH4+—N (%) Day 7 / Nitrified NH4+—N (%) Day 14 / Nitrified NH4+—N (%) Day 28: compounds 10 mol %
# Procedure: as §1, §2, §3, §4, §5, §6, §7
# [4] = test system: Horsham soil; assay: Soil microcosm incubation (nitrification of applied ammonium), Horsham soil
# Procedure: as §1, §2, §3, §4, §5, §6, §7, §8, §9
# [5] = Table 5, Dahlen soil pH 7.3, 25° C.
# [6] = Table 5, Dahlen soil pH 7.3, 35° C.
# [7] = South Johnstone soil pH 5.0, 25° C., negative = NH4+—N higher than day 0 (mineralisation)
# [8] = South Johnstone soil pH 5.0, 25° C.
# [9] = South Johnstone soil pH 5.0, 35° C.
# [10] = Horsham soil pH 8.8, 25° C., 10 mol %
# [11] = Horsham soil pH 8.8, 35° C., 10 mol %
# [12] = Table 4, Dahlen soil pH 7.3, 25° C.
# [13] = Table 4, Dahlen soil pH 7.3, 35° C.
compound,measurement,setting,value
"C=CCn1cc(CCC)nn1 [Compound 18, 1-(2-propen-1-yl)-4-propyl-1H-1,2,3-triazole]",retaining NH4+—N levels by day 28 vs fertilised control (and DMPP),"[1]; Dahlen soil, 25° C., Table 5 test",performed statistically better
same,retaining NH4+—N vs (NH4)2SO4-treated control by day 28,"[1]; Dahlen soil, 35° C., Table 5 test",remain highly effective
same,Nitrified NH4+—N (%) Day 3,"[1]; Table 5 (further comparative test), Dahlen soil pH 7.3, 25° C.",5.1 ± 5.3%
same,Nitrified NH4+—N (%) Day 7,[1]; [5],4.4 ± 1.1%
same,Nitrified NH4+—N (%) Day 14,[1]; [5],29.4 ± 2.4%
same,Nitrified NH4+—N (%) Day 21,[1]; [5],32.1 ± 2.3%
same,Nitrified NH4+—N (%) Day 28,[1]; [5],40.5 ± 1.5%
same,Nitrified NH4+—N (%) Day 3,[1]; [6],9.0 ± 4.3%
same,Nitrified NH4+—N (%) Day 7,[1]; [6],4.5 ± 4.3%
same,Nitrified NH4+—N (%) Day 14,[1]; [6],26.7 ± 3.9%
same,Nitrified NH4+—N (%) Day 21,[1]; [6],19.8 ± 5.0%
same,Nitrified NH4+—N (%) Day 28,[1]; [6],43.0 ± 4.7%
same,Nitrified NH4+—N (%) Day 3,[2]; [7],−6.2 ± 0.9%
same,Nitrified NH4+—N (%) Day 7,[2]; [8],−8.5 ± 1.0%
same,Nitrified NH4+—N (%) Day 14,[2]; [8],−11.0 ± 1.0%
same,Nitrified NH4+—N (%) Day 21,[2]; [8],−12.1 ± 1.4%
same,Nitrified NH4+—N (%) Day 28,[2]; [8],−14.9 ± 1.4%
same,Nitrified NH4+—N (%) Day 3,[2]; [9],−11.7 ± 2.0%
same,Nitrified NH4+—N (%) Day 7,[2]; [9],−28.7 ± 1.5%
same,Nitrified NH4+—N (%) Day 14,[2]; [9],−35.8 ± 1.3%
same,Nitrified NH4+—N (%) Day 21,[2]; [9],−31.7 ± 1.1%
same,Nitrified NH4+—N (%) Day 28,[2]; [9],−16.9 ± 1.8%
same,"effectiveness compared to treatment with DMPP (higher NH4+—N, lower NOx−—N)",[2],statistically higher effectiveness
same,retaining NH4+—N vs DMPP,[2],performed statistically better than DMPP
same,retaining NH4+—N and slowing NOx−—N growth vs fertilised control,[2],performed statistically better than the fertilised control
"CCCCc1cn(CC(=O)OCC)nn1 [Compound 3, 4-Butyl-1H-1,2,3-Triazole-1-Acetic Acid Ethyl Ester]",Nitrified NH4+—N (%) Day 3,[3],15.6 ± 3.0%
same,Nitrified NH4+—N (%) Day 7,[3],29.4 ± 2.6%
same,Nitrified NH4+—N (%) Day 14,[3],47.8 ± 3.5%
same,Nitrified NH4+—N (%) Day 28,[3],99.9 ± 2.8%
same,retaining NH4+—N in the soil compared with the fertilised control,"[3]; Terang soil, 25° C.",most effective treatments
same,Nitrified NH4+—N (%) Day 3,[2]; [7],−6.3 ± 0.7%
same,Nitrified NH4+—N (%) Day 7,[2]; [8],−7.9 ± 0.9%
same,Nitrified NH4+—N (%) Day 14,[2]; [8],−12.7 ± 0.7%
same,Nitrified NH4+—N (%) Day 21,[2]; [8],−13.9 ± 0.9%
same,Nitrified NH4+—N (%) Day 28,[2]; [8],−12.8 ± 0.8%
same,Nitrified NH4+—N (%) Day 3,[2]; [9],−11.8 ± 1.5%
same,Nitrified NH4+—N (%) Day 7,[2]; [9],−26.2 ± 1.5%
same,Nitrified NH4+—N (%) Day 14,[2]; [9],−34.8 ± 0.6%
same,Nitrified NH4+—N (%) Day 21,[2]; [9],−28.3 ± 1.4%
same,Nitrified NH4+—N (%) Day 28,[2]; [9],−18.6 ± 2.3%
same,"effectiveness compared to treatment with DMPP (higher NH4+—N, lower NOx−—N)",[2],statistically higher effectiveness
same,retaining NH4+—N vs DMPP,[2],performed statistically better than DMPP
same,retaining NH4+—N and slowing NOx−—N growth vs fertilised control,[2],performed statistically better than the fertilised control
"CCCCn1cc(C(C)(C)O)nn1 [Compound 4, 1-butyl-4-(α,α-dimethylmethanol)-1H-1,2,3-triazole]",Nitrified NH4+—N (%) Day 3,[3],27.0 ± 7.5%
same,Nitrified NH4+—N (%) Day 7,[3],67.3 ± 5.2%
same,Nitrified NH4+—N (%) Day 14,[3],96.4 ± 5.8%
same,Nitrified NH4+—N (%) Day 28,[3],100 ± 5.9%
"CCCCCc1cn(CCCC)nn1 [Compound 1, 1-butyl-4-pentyl-1H-1,2,3-triazole]",Nitrified NH4+—N (%) Day 3,[3],13.6 ± 3.1%
same,Nitrified NH4+—N (%) Day 7,[3],43.1 ± 3.7%
same,Nitrified NH4+—N (%) Day 14,[3],85.1 ± 4.5%
same,Nitrified NH4+—N (%) Day 28,[3],100 ± 4.2%
"CCCCc1cn(CCCC)nn1 [Compound 2, 1,4-butyl-1H-1,2,3-triazole]",Nitrified NH4+—N (%) Day 3,[3],27.2 ± 2.0%
same,Nitrified NH4+—N (%) Day 7,[3],64.8 ± 2.3%
same,Nitrified NH4+—N (%) Day 14,[3],95.6 ± 2.8%
same,Nitrified NH4+—N (%) Day 28,[3],100 ± 2.7%
same,Nitrified NH4+—N (%) Day 3,"[4]; Horsham soil pH 8.8, 25° C., inhibitors 10 mol % of applied N",12.2 ± 8.6%
same,Nitrified NH4+—N (%) Day 7,[4]; [10],17.9 ± 6.9%
same,Nitrified NH4+—N (%) Day 14,[4]; [10],44.5 ± 7.2%
same,Nitrified NH4+—N (%) Day 21,[4]; [10],66.6 ± 8.9%
same,Nitrified NH4+—N (%) Day 28,[4]; [10],90.4 ± 9.7%
same,Nitrified NH4+—N (%) Day 3,[4]; [11],−3.3 ± 5.9%
same,Nitrified NH4+—N (%) Day 7,[4]; [11],8.8 ± 5.5%
same,Nitrified NH4+—N (%) Day 14,[4]; [11],40.3 ± 5.4%
same,Nitrified NH4+—N (%) Day 21,[4]; [11],53.8 ± 9.4%
same,Nitrified NH4+—N (%) Day 28,[4]; [11],71.6 ± 22.9%
same,retaining NH4+ vs uninhibited control treatment,"[4]; Horsham soil, 25° C., after 28 days",to a lesser extent
same,NOx−—N accumulation: effect of temperature (25° C. vs 35° C.),"[4]; Horsham soil, 28-day incubation",lower at the elevated temperature
same,nitrification rates vs uninhibited control treatment,"[4]; Horsham soil, 35° C.",lower nitrification rates than the uninhibited control treatment
same,retaining NH4+—N vs uninhibited control treatment and DMPP,"[1]; Dahlen soil, 25° C., after 28 days",performed statistically better
same,retaining NH4+ vs both DMPP treatment and control treatment,"[1]; Dahlen soil, 35° C., after 28 days",performed statistically better
same,Nitrified NH4+—N (%) Day 3,[1]; [12],7.5 ± 5.2%
same,Nitrified NH4+—N (%) Day 7,[1]; [12],21.2 ± 12.2%
same,Nitrified NH4+—N (%) Day 14,[1]; [12],20.3 ± 21.6%
same,Nitrified NH4+—N (%) Day 21,[1]; [12],32.9 ± 18.4%
same,Nitrified NH4+—N (%) Day 28,[1]; [12],37.6 ± 11.0%
same,Nitrified NH4+—N (%) Day 3,[1]; [13],1.7 ± 3.3%
same,Nitrified NH4+—N (%) Day 7,[1]; [13],−1.3 ± 1.9%
same,Nitrified NH4+—N (%) Day 14,[1]; [13],2.0 ± 2.4%
same,Nitrified NH4+—N (%) Day 21,[1]; [13],29.6 ± 3.6%
same,Nitrified NH4+—N (%) Day 28,[1]; [13],22.4 ± 1.5%
